In patent US10717711B2, “Amino quinazolines as kinase inhibitors” (GlaxoSmithKline Intellectual Property Development Limited, priority 2011, dated 2020):
“And” between values parts separate entries of the source, which are not always exact repeats. Equal values may be shown once.

Target: T1, RIPK2 (full length FLAG His tagged RIPK2; RIP2 kinase) (Homo sapiens, UniProt O43353)
T1 construct: Full length FLAG His tagged RIPK2 was purified from a Baculovirus expression system; FLAG (N); 6His (N); made in house; host or cells: Spodoptera frugiperda (Sf9) insect cells, baculovirus
T1 sequence (O43353 whole entry): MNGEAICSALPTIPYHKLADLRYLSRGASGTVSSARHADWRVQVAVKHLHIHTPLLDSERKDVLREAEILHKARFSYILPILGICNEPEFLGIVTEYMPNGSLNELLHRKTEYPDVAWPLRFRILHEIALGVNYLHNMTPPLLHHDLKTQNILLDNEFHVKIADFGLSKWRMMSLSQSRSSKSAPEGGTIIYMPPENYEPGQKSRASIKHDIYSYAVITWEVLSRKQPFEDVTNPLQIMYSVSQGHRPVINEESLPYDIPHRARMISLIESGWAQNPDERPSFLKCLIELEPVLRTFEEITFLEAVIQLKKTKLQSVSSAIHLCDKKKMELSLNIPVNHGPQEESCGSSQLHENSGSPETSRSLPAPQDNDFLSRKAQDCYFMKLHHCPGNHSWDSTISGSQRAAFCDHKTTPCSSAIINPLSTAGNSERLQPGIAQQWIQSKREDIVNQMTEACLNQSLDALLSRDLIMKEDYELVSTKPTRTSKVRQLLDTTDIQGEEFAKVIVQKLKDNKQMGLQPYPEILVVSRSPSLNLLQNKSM
Assay: Fluorescent polarization based binding assay at the ATP binding pocket of RIPK2
Settings: competition with fluorescently labeled ATP competitive ligand (5 nM); mean of a minimum of 2 experiments; approximate values; read-out: mean pIC50 (RIP2 kinase inhibition) (converted)
Excerpt: A fluorescent polarization based binding assay was developed to quantitate interaction of novel test compounds at the ATP binding pocket of RIPK2, by competition with a fluorescently labeled ATP competitive ligand. Full length FLAG His tagged RIPK2 was purified from a Baculovirus expression system and was used at a final assay concentration of twice the KDapparent. A fluorescent labeled ligand (5-({[2-({[3-({4-[(5-hydroxy-2-methylphenyl)amino]-2-pyrimidinyl}amino)phenyl]carbonyl}amino)ethyl] amino}carbonyl)-2-(6-hydroxy-3-oxo-3H-xanthen-9-yl)benzoic acid, prepared as described in WO2011/120025) was used at a final assay concentration of 5 nM. Both the enzyme and ligand were prepared in solutions in 50 mM HEPES pH7.5, 150 mM NaCl, 10 mM MgCl2, 1 mM DTT, and 1 mM CHAPS. Test compounds were prepared in 100% DMSO and 100 nL was dispensed to individual wells of a multiwell plate. Next, 5 ul RIPK2 was added to the test compounds at twice the final assay concentration, and incubated at rt for 10 min. Following the incubation, 5 ul of the fluorescent labeled ligand solution, was added to each reaction, at twice the final assay concentration, and incubated at rt for at least 10 min. Finally, samples were read on an instrument capable of measuring fluorescent polarization. Test compound inhibition was expressed as percent (%) inhibition of internal assay controls.
For concentration/dose response experiments, normalized data were fit and pIC50S determined using conventional techniques. The pIC50S are averaged to determine a mean value, for a minimum of 2 experiments.
Full-length human RIPK2 (receptor-interacting serine-threonine kinase 2) cDNA was purchased from Invitrogen (Carlsbad, Calif., USA, Clone ID:IOH6368, RIPK2-pENTR 221). Gateway® LR cloning was used to site-specifically recombine RIPK2 downstream to an N-terminal FLAG-6His contained within the destination vector pDEST8-FLAG-His6 according to the protocol described by Invitrogen. Transfection into Spodoptera frugiperda (Sf9) insect cells was performed using Cellfectin® (Invitrogen), according to the manufacturer's protocol.
Sf9 cells were grown in Excell 420 (SAFC Biosciences, Lenexa, Kans., US; Andover, Hampshire UK) growth media at 27° C., 80 rpm in shake flask until of a sufficient volume to inoculate a bioreactor. […] The insect cells were infected with Baculovirus at a multiplicity of infection (MOI) of 12.7. The cultivation was continued for a 43 hour expression phase. The infected cells were removed from the growth media by centrifugation at 2500 g using a Viafuge (Carr) continuous centrifuge at a flow rate of 80 litres/hour. The cell pellet was immediately frozen and subsequently supplied for purification.
Purification Procedure I: 9.83×10^10 Insect cells were re-suspended in 1.4 L lysis buffer (50 mM Tris (pH 8.0), 150 mM NaCl, 0.5 mM NaF, 0.1% Triton X-100, 1 mL/litre Protease Inhibitor Cocktail Set III (available from EMD Group; CalBiochem/Merck Biosciences, Gibbstown, N.J., US; Damstadt, Germany) and processed by dounce homogenization on ice. The suspension was then clarified by centrifugation at 47,900 g for 2 h, at 4° C. The lysate was decanted from the insoluble pellet and loaded at a linear flow rate of 16 cm/h onto a 55 mL FLAG-M2 affinity column (2.6×10.4 cm) that had been pre-equilibrated with 10 column volumes buffer A (50 mM Tris (pH 8.0), 150 mM NaCl, 0.5 mM NaF, 1 mL/litre Protease Inhibitor Cocktail Set III). […]

IC50	Structure (SMILES)
~31.6 nM and 1 to 100 nM	CC(C)(C)S(=O)(=O)c1ccc2ncnc(Nc3ccc4scnc4c3)c2c1 [Example 4, N-1,3-benzothiazol-5-yl-6-[(1,1-dimethylethyl)sulfonyl]-4-quinazolinamine]
1 to 100 nM	CC(C)S(=O)(=O)c1ccc2ncnc(Nc3ccc4scnc4c3)c2c1 [Example 6, N-1,3-benzothiazol-5-yl-6-[(1-methylethyl)sulfonyl]-4-quinazolinamine]
~3.16 nM and 1 to 100 nM	COc1cc2ncnc(Nc3ccc4scnc4c3)c2cc1S(=O)(=O)C(C)(C)C [Example 16, N-(6-(tert-butylsulfonyl)-7-methoxyquinazolin-4-yl)benzo[d]thiazol-5-amine]
1 to 100 nM	CC(C)(C)S(=O)(=O)c1cc2c(Nc3ccc4scnc4c3)ncnc2cc1OCCO [Example 21, 2-((4-(benzo[d]thiazol-5-ylamino)-6-(tert-butylsulfonyl)quinazolin-7-yl)oxy)ethanol]
1 to 100 nM	CC(C)(C)S(=O)(=O)c1cc2c(Nc3ccc4scnc4c3)ncnc2cc1OCC(F)(F)F [Example 23, N-(6-(tert-butylsulfonyl)-7-(2,2,2-trifluoroethoxy)quinazolin-4-yl)benzo[d]thiazol-5-amine]
